Assay results taken from patent publication US20110039879A1, “METHODS FOR INCREASING WHITE BLOOD CELLS” (FibroGen ,Inc., priority 2007, published 2011).

Legend:
Format in all cases: in vivo, Swiss-Webster mice
[1] = system: monocytes; assay: Monocytes by complete blood count on day 8, dosing day 1, 3, 5; conditions: mice, oral gavage, measured on day 8
[2] = system: total white blood cell (WBC); assay: Total white blood cells by complete blood count on day 8, dosing day 1, 3, 5; conditions: mice, oral gavage, measured on day 8
[3] = system: neutrophils; assay: Neutrophils by complete blood count on day 8, dosing day 1, 3, 5; conditions: Mus musculus, Neutrophil, 192 h, mice, oral gavage, measured on day 8, read-out: Neutrophils % Increase Over Control; for change in vivo at 100 mg/kg: 100 mg/kg on day 1, day 3 and day 5; for change in vivo at 200 mg/kg: 200 mg/kg on day 1, day 3 and day 5; for change in vivo at 20 mg/kg: 20 mg/kg on day 1, day 3 and day 5
Protocol: (§1) To examine the effect of compounds and methods of the present invention on increasing white blood cells, the following studies were performed. In one series of experiments, male Swiss-Webster mice were administered various compounds of the present invention via oral gavage using a ball-tipped gavage needle. […] Animals were dosed once daily for 3 or 4 days. Six hours after the final dosing, 200 μl blood samples were collected and total white blood cell, neutrophil, and lymphocyte levels were measured by complete blood count (CBC) using a CellDyn cell analyzer (Abbott Laboratories).
(§2) In another series of experiments, male Swiss-Webster mice were administered various compounds (see Table 7 and Table 8) of the present invention via oral gavage using a ball-tipped gavage needle. […] Total WBC, neutrophil, lymphocyte, and monocyte levels were measured in mice as described above on day 8 following administration of compound on day 1, day 3, and day 5.

[4] = system: total white blood cell (WBC); assay: Total white blood cells by complete blood count on day 8, dosing day 1, 3, 5; conditions: Mus musculus, 192 h, mice, oral gavage, measured on day 8, read-out: Total WBC % Increase Over Control; for change in vivo at 100 mg/kg: 100 mg/kg on day 1, day 3 and day 5; for change in vivo at 200 mg/kg: 200 mg/kg on day 1, day 3 and day 5; for change in vivo at 20 mg/kg: 20 mg/kg on day 1, day 3 and day 5; for change in vivo at 60 mg/kg: 60 mg/kg on day 1, day 3 and day 5
Protocol: as §1, §2

[5] = system: lymphocytes; assay: Lymphocytes by complete blood count on day 8, dosing day 1, 3, 5; conditions: mice, oral gavage, measured on day 8
Protocol: as §1, §2

[6] = system: neutrophils; assay: Neutrophils by complete blood count on day 8, dosing day 1, 3, 5; conditions: mice, oral gavage, measured on day 8
[7] = 100 mg/kg on day 1, day 3 and day 5
[8] = Mus musculus, Lymphocyte, 192 h, 100 mg/kg on day 1, day 3 and day 5, read-out: Lymphocytes % Increase Over Control
[9] = Mus musculus, Monocyte, 192 h, 100 mg/kg on day 1, day 3 and day 5, read-out: Monocytes % Increase Over Control
[10] = Mus musculus, Monocyte, 192 h, 200 mg/kg on day 1, day 3 and day 5, read-out: Monocytes % Increase Over Control
[11] = 200 mg/kg on day 1, day 3 and day 5
[12] = Mus musculus, Lymphocyte, 192 h, 200 mg/kg on day 1, day 3 and day 5, read-out: Lymphocytes % Increase Over Control
[13] = Mus musculus, Monocyte, 192 h, 20 mg/kg on day 1, day 3 and day 5, read-out: Monocytes % Increase Over Control
[14] = 20 mg/kg on day 1, day 3 and day 5
[15] = Mus musculus, Lymphocyte, 192 h, 20 mg/kg on day 1, day 3 and day 5, read-out: Lymphocytes % Increase Over Control
[16] = Mus musculus, Monocyte, 192 h, 60 mg/kg on day 1, day 3 and day 5, read-out: Monocytes % Increase Over Control
[17] = 60 mg/kg on day 1, day 3 and day 5
[18] = Mus musculus, Lymphocyte, 192 h, 60 mg/kg on day 1, day 3 and day 5, read-out: Lymphocytes % Increase Over Control
[19] = 6 mg/kg on day 1, day 3 and day 5

## Cc1nc(C(=O)NCC(=O)O)c(O)c2cccc(Oc3ccccc3)c12 [Compound AC, [(4-Hydroxy-1-methyl-8-phenoxy-isoquinoline-3-carbonyl)-amino]-acetic acid]
[1]; [7]
  Monocytes: 0.1 10^3 cells/μl
[2]; [7]
  Total WBC: 9.2 10^3 cells/μl
[3]
  change in vivo at 100 mg/kg: 96%
[4]
  change in vivo at 100 mg/kg: 94%
[5]; [8]
  change in vivo at 100 mg/kg: 95%
[5]; [7]
  Lymphocytes: 8.0 10^3 cells/μl
[6]; [7]
  Neutrophils: 1.0 10^3 cells/μl

## Cc1cccc(C)c1Oc1ccc2c(O)c(C(=O)NCC(=O)O)nc(C#N)c2c1 [Compound AI, {[1-Cyano-7-(2,6-dimethyl-phenoxy)-4-hydroxy-isoquinoline-3-carbonyl]-amino}-acetic acid]
[1]; [9]
  change in vivo at 100 mg/kg: 0%
[1]; [7]
  Monocytes: 0.1 10^3 cells/μl
[2]; [7]
  Total WBC: 18.3 10^3 cells/μl
[3]
  change in vivo at 100 mg/kg: 45%
[4]
  change in vivo at 100 mg/kg: 266%
[5]; [8]
  change in vivo at 100 mg/kg: 303%
[5]; [7]
  Lymphocytes: 17.4 10^3 cells/μl
[6]; [7]
  Neutrophils: 0.7 10^3 cells/μl

## C[C@@H](c1ccccc1)n1c(Cl)c(Cl)c2c(O)c(C(=O)NCC(=O)O)nc(C#N)c21 [Compound AL, {[(S)-2,3-Dichloro-7-cyano-4-hydroxy-1-(1-phenyl-ethyl)-1H-pyrrolo[2,3-c]pyridine-5-carbonyl]-amino}-acetic acid]
[1]; [10]
  change in vivo at 200 mg/kg: 33%
[1]; [11]
  Monocytes: 0.1 10^3 cells/μl
[2]; [11]
  Total WBC: 18.2 10^3 cells/μl
[3]
  change in vivo at 200 mg/kg: 265%
[4]
  change in vivo at 200 mg/kg: 207%
[5]; [12]
  change in vivo at 200 mg/kg: 205%
[5]; [11]
  Lymphocytes: 15.3 10^3 cells/μl
[6]; [11]
  Neutrophils: 2.8 10^3 cells/μl

## CCCCCCn1cc(Cl)c2c(O)c(C(=O)NCC(=O)O)nc(C#N)c21 [Compound AS, [(3-Chloro-7-cyano-1-hexyl-4-hydroxy-1H-pyrrolo[2,3-c]pyridine-5-carbonyl)-amino]-acetic acid]
[1]; [13]
  change in vivo at 20 mg/kg: -8%
[1]; [14]
  Monocytes: 0.2 10^3 cells/μl
[2]; [14]
  Total WBC: 7.2 10^3 cells/μl
[3]
  change in vivo at 20 mg/kg: 42%
[4]
  change in vivo at 20 mg/kg: 24%
[5]; [15]
  change in vivo at 20 mg/kg: 24%
[5]; [14]
  Lymphocytes: 6.0 10^3 cells/μl
[6]; [14]
  Neutrophils: 0.9 10^3 cells/μl

## N#Cc1nc(C(=O)NCC(=O)O)c(O)c2c(Cl)cn(Cc3ccccc3C(F)(F)F)c12 [Compound AT, {[3-Chloro-7-cyano-4-hydroxy-1-(2-trifluoromethyl-benzyl)-1H-pyrrolo[2,3-c]pyridine-5-carbonyl]-amino}-acetic acid]
[1]; [9]
  change in vivo at 100 mg/kg: 94%
[1]; [7]
  Monocytes: 0.2 10^3 cells/μl
[2]; [7]
  Total WBC: 9.4 10^3 cells/μl
[3]
  change in vivo at 100 mg/kg: 27%
[4]
  change in vivo at 100 mg/kg: 81%
[5]; [8]
  change in vivo at 100 mg/kg: 94%
[5]; [7]
  Lymphocytes: 8.5 10^3 cells/μl
[6]; [7]
  Neutrophils: 0.8 10^3 cells/μl

## N#Cc1nc(C(=O)NCC(=O)O)c(O)c2ccn(Cc3ccc(-c4ccccc4)cc3)c12 [Compound AU, [(1-Biphenyl-4-ylmethyl-7-cyano-4-hydroxy-1H-pyrrolo[2,3-c]pyridine-5-carbonyl)-amino]-acetic acid]
[1]; [16]
  change in vivo at 60 mg/kg: 118%
[1]; [17]
  Monocytes: 0.3 10^3 cells/μl
[2]; [17]
  Total WBC: 22.6 10^3 cells/μl
[3]; [17]
  change in vivo at 60 mg/kg: 63%
[4]
  change in vivo at 60 mg/kg: 290%
[5]; [18]
  change in vivo at 60 mg/kg: 332%
[5]; [17]
  Lymphocytes: 21.0 10^3 cells/μl
[6]; [17]
  Neutrophils: 1.1 10^3 cells/μl

## N#Cc1nc(C(=O)NCC(=O)O)c(O)c2c(Cl)cn(Cc3ccc(-c4ccccc4)cc3)c12 [Compound AW, [(1-Biphenyl-4-ylmethyl-3-chloro-7-cyano-4-hydroxy-1H-pyrrolo[2,3-c]pyridine-5-carbonyl)-amino]-acetic acid]
[1]; [10]
  change in vivo at 200 mg/kg: 100%
[1]; [11]
  Monocytes: 0.2 10^3 cells/μl
[2]; [11]
  Total WBC: 39.1 10^3 cells/μl
[3]
  change in vivo at 200 mg/kg: 604%
[4]
  change in vivo at 200 mg/kg: 616%
[5]; [12]
  change in vivo at 200 mg/kg: 635%
[5]; [11]
  Lymphocytes: 34.1 10^3 cells/μl
[6]; [11]
  Neutrophils: 4.7 10^3 cells/μl

## Cc1cccc(Oc2cccc3c(C#N)nc(C(=O)NCC(=O)O)c(O)c23)c1 [Compound AY, {[1-Cyano-4-hydroxy-5-m-tolyloxy-isoquinoline-3-carbonyl]-amino}-acetic acid]
[1]; [13]
  change in vivo at 20 mg/kg: 8%
[1]; [14]
  Monocytes: 0.2 10^3 cells/μl
[2]; [14]
  Total WBC: 7.5 10^3 cells/μl
[3]
  change in vivo at 20 mg/kg: 9%
[4]
  change in vivo at 20 mg/kg: 19%
[5]; [15]
  change in vivo at 20 mg/kg: 21%
[5]; [14]
  Lymphocytes: 6.5 10^3 cells/μl
[6]; [14]
  Neutrophils: 0.7 10^3 cells/μl

## Cc1ccc(Oc2cccc3c(C#N)nc(C(=O)NCC(=O)O)c(O)c23)cc1 [Compound BA, [(1-Cyano-4-hydroxy-5-p-tolyloxy-isoquinoline-3-carbonyl)-amino]-acetic acid]
[1]; [9]
  change in vivo at 100 mg/kg: 20%
[1]; [7]
  Monocytes: 0.2 10^3 cells/μl
[2]; [7]
  Total WBC: 24.7 10^3 cells/μl
[3]
  change in vivo at 100 mg/kg: 38%
[4]
  change in vivo at 100 mg/kg: 434%
[5]; [8]
  change in vivo at 100 mg/kg: 514%
[5]; [7]
  Lymphocytes: 23.8 10^3 cells/μl
[6]; [7]
  Neutrophils: 0.7 10^3 cells/μl

## COc1cccc(Oc2ccc3c(O)c(C(=O)NCC(=O)O)nc(C#N)c3c2)c1 [Compound BE, {[1-Cyano-4-hydroxy-7-(3-methoxy-phenoxy)-isoquinoline-3-carbonyl]-amino}-acetic acid]
[1]; Mus musculus, Monocyte, 192 h, 6 mg/kg on day 1, day 3 and day 5, read-out: Monocytes % Increase Over Control
  change in vivo at 6 mg/kg: 71%
[1]; [19]
  Monocytes: 0.3 10^3 cells/μl
[2]; Mus musculus, 192 h, 6 mg/kg on day 1, day 3 and day 5, read-out: Total WBC % Increase Over Control
  change in vivo at 6 mg/kg: 39%
[2]; [19]
  Total WBC: 9.6 10^3 cells/μl
[5]; Mus musculus, Lymphocyte, 192 h, 6 mg/kg on day 1, day 3 and day 5, read-out: Lymphocytes % Increase Over Control
  change in vivo at 6 mg/kg: 40%
[5]; [19]
  Lymphocytes: 8.1 10^3 cells/μl
[6]; Mus musculus, Neutrophil, 192 h, 6 mg/kg on day 1, day 3 and day 5, read-out: Neutrophils % Increase Over Control
  change in vivo at 6 mg/kg: 30%
[6]; [19]
  Neutrophils: 1.0 10^3 cells/μl

## O=C(O)CNC(=O)c1c(O)c2ccccc2sc1=O [Compound BF, [(4-Hydroxy-2-oxo-2H-thiochromene-3-carbonyl)-amino]-acetic acid]
[1]; [13]
  change in vivo at 20 mg/kg: 64%
[1]; [14]
  Monocytes: 0.2 10^3 cells/μl
[2]; [14]
  Total WBC: 8.4 10^3 cells/μl
[3]
  change in vivo at 20 mg/kg: 65%
[4]
  change in vivo at 20 mg/kg: 17%
[5]; [15]
  change in vivo at 20 mg/kg: 12%
[5]; [14]
  Lymphocytes: 7.1 10^3 cells/μl
[6]; [14]
  Neutrophils: 1.0 10^3 cells/μl

## COc1cccc(Cn2ccc3c(O)c(C(=O)NCC(=O)O)nc(C#N)c32)c1 [Compound M, {[7-Cyano-4-hydroxy-1-(3-methoxy-benzyl)-1H-pyrrolo[2,3-c]pyridine-5-carbonyl]-amino}-acetic acid]
[1]; [16]
  change in vivo at 60 mg/kg: 100%
[1]; [17]
  Monocytes: 0.1 10^3 cells/μl
[2]; [17]
  Total WBC: 9.7 10^3 cells/μl
[4]
  change in vivo at 60 mg/kg: 149%
[5]; [18]
  change in vivo at 60 mg/kg: 126%
[5]; [17]
  Lymphocytes: 7.5 10^3 cells/μl
[6]; [17]
  Neutrophils: 0.6 10^3 cells/μl
